Experimental data from paper PMC3912022, “A Fluorescence-Based Assay for Measuring the Redox Potential of 5-Lipoxygenase Inhibitors” (PLoS ONE, 2014).
Entries after “also recorded” stand apart in the source; their conditions may differ.

What was measured:
Format in all cases: biochemical
Human recombinant 5-LO [1] = biological target: T1, Human recombinant 5-LO (Homo sapiens, UniProt P09917); experiment: Redox fluorescence assay (remaining 13(S)-HpODE by H2DCFDA fluorescence after pseudo-peroxidase reaction)
T1 construct: purchased Cayman Chemical
T1 sequence (P09917 1-674): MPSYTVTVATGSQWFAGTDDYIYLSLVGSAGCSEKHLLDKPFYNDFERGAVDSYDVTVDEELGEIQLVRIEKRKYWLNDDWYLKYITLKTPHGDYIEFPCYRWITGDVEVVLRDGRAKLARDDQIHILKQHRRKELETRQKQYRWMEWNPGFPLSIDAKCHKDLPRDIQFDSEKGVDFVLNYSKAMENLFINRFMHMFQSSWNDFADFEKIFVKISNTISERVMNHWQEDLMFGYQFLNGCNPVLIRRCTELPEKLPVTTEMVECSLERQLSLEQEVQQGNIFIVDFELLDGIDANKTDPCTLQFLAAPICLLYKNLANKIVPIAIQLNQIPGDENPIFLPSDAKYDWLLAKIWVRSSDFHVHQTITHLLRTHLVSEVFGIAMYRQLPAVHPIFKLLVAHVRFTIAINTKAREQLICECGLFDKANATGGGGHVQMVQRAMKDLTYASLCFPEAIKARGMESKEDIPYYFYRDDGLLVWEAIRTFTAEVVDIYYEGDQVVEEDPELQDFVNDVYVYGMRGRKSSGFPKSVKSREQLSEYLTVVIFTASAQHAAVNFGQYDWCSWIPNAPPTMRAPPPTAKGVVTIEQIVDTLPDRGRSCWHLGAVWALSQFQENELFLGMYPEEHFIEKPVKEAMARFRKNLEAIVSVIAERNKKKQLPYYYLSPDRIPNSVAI
From the text: (§1) Lipid peroxide is consumed when 5-LO is activated to the ferric iron form. The enzyme remains activated during the dioxygenation reaction cycle. If a redox inhibitor is present, it reduces the catalytic iron into the ferrous form and inhibits the enzyme reaction. Another lipid peroxide must be consumed to re-activate 5-LO to the ferric form. As a result, reductions in the amount of lipid peroxide in the reaction mixture signify redox activity. […] The absorbance-based method measures the amount of peroxide by its absorbance at 234 nm, and the fluorescence-based method measures it by analyzing its reaction with H2DCFDA.
H2DCF-DA (60 µM) was pre-cleaved by 5-LO crude lysate in the reaction buffer (50 mM Tris, pH 7.5, 2 mM ethylenediaminetetraacetic acid [EDTA], 2 mM CaCl2, and 10 µM adenosine triphosphate [ATP]) for more than 10 minutes before the main reaction, as previously reported. In a 384-well plate, 10 µl of 450 mU/µl enzyme solution was distributed and mixed with 10 µl of inhibitor solution with various concentrations. 13(S)-HpODE (10 µM; 20 µl) was added to each well to start the reaction. After 3 minutes, pre-cleaved H2DCF-DA dye (20 µl) was added and incubated for more than 10 minutes. The fluorescence signal was measured using a fluorometer at excitation and emission wavelengths of 485 and 530 nm, respectively. All steps were carried out at room temperature.
The highest and lowest compound concentrations in the serially diluted set were 100 µM and 1.69 nM, respectively. […] The final DMSO amount in the reaction mixture was kept at 1% throughout the experiments. […] Four wells without any inhibitors represented the “100% peroxide” control wells, and the average fluorescence values in the control wells were used for normalization of fluorescence data. The concentration points were duplicated in each test and the concentration-dependent fluorescence data were fitted with three-parameter logistic regression in Prism using the top and bottom constraints of 100 and 0, respectively.

Human recombinant 5-LO [2] = biological target: T1, Human recombinant 5-LO; experiment: Redox absorbance assay (13(S)-HpODE absorbance at 234 nm, pseudo-peroxidase activity); settings: for Redox absorbance, Δabs: absorbance at 234 nm, change over 180 seconds, average ± SD of triplicate
From the text: as §1
The redox absorbance assay was carried out as described by Zweifel, et al.. Specifically, 10 µl of 1 mM inhibitor solution was mixed with 490 µl of 20 µM 13-HpODE solution. After 3 minutes of incubation at room temperature, the solution was transferred to a cuvette. The reaction started when 500 µl of the 20 unit/ml enzyme solution was added to the peroxide-inhibitor mixture in the cuvette. The absorbance of 13(S)-HpODE at 234 nm was measured immediately after mixing, using a SpectraMax M5 spectrophotometer. Data points were collected for 3 minutes. The reaction buffer consisted of 50 mM potassium phosphate buffer (pH 7.6), 0.1 mM EDTA, 100 µM ATP, and 0.3 mM CaCl2.
The accuracy and efficacy of the redox absorbance assay were determined by testing the selected compounds. The absorbance of 13(S)-HpODE was measured at 234 nm, and the values were recorded every second for 3 minutes.
In theory, because the extinction coefficient of 13(S)-HpODE at 234 nm is 23,000 M^−1 cm^−1, 10 µM 13(S)-HpODE contributes a maximum of 0.23 in absorbance.

Human recombinant 5-LO [3] = biological target: T1, Human recombinant 5-LO; experiment: as above
[4] = 10 µM inhibitor, 234 nm, 3 min kinetic curve, Figure 2

## COc1ccc(/C=C2\SC(c3ccc(Cl)cc3)=NC2=O)cc1 [CAY10649, (Z)-2-(4-chlorophenyl)-5-(4-methoxybenzylidene)thiazol-4(5H)-one]
Human recombinant 5-LO [1]
  EC50: > 100 µM
Human recombinant 5-LO [2]; 10 µM inhibitor
  Redox absorbance, Δabs: 0.014±0.011

## N#CC(=Cc1ccc(O)c(O)c1)C(=O)OCC=Cc1ccccc1 [CDC, cinnamyl 3,4-dihydroxy-alpha-cyanocinnamate]
Human recombinant 5-LO [1]
  EC50: 0.13 ± 0.17 µM
Human recombinant 5-LO [3]; buffer of the redox fluorescence assay, Figure 4-C
  redox activity in absorbance assay carried out in the fluorescence assay buffer: redox activity was not detected
Human recombinant 5-LO [2]; [4]
  absorbance pattern over time (redox / non-redox pattern): perfect non-redox pattern; also recorded: increases in the absorbance assay
Human recombinant 5-LO [2]; 10 µM inhibitor
  Redox absorbance, Δabs: 0.015±0.005

## O=C(O)C=Cc1ccc(O)c(O)c1 [Caffeic acid, 3,4-dihydroxy cinnamic acid]
Human recombinant 5-LO [1]; fluorescence assay, relative to stronger redox inhibitors
  redox activity less than that of the stronger redox inhibitors: 60%
Human recombinant 5-LO [2]; [4]
  absorbance pattern over time (redox / non-redox pattern): no changes in absorbance over time
Human recombinant 5-LO [2]; 10 µM inhibitor
  Redox absorbance, Δabs: 0.005±0.003

## CC(Cc1ccc(O)c(O)c1)C(C)Cc1ccc(O)c(O)c1 (centres unmarked) [NDGA, 4,4′-(2,3-dimethyl-1,4-butanediyl)bis-1,2-benzenediol]
Human recombinant 5-LO [2]; [4]
  absorbance pattern over time (redox / non-redox pattern): increases in the absorbance assay
Human recombinant 5-LO [2]; 10 µM inhibitor
  Redox absorbance, Δabs: 0.009±0.007

## Cn1nccc1-c1ccc(Sc2cccc(C3(C(N)=O)CCOCC3)c2)cc1 [PF4191834]
Human recombinant 5-LO [1]
  EC50: > 100 µM
Human recombinant 5-LO [2]; 10 µM inhibitor
  Redox absorbance, Δabs: 0.015±0.005

## CCCCCCC(Sc1nc(Cl)cc(Nc2cccc(C)c2C)n1)C(=O)O (centres unmarked) [YS121, 2-[[4-chloro-6-[(2,3-dimethylphenyl)amino]-2-pyrimidinyl]thio]-octanoic acid]
Human recombinant 5-LO [1]
  EC50: 77.2 ± 35.1 µM
Human recombinant 5-LO [2]; 10 µM inhibitor
  Redox absorbance, Δabs: 0.008±0.005

## CC(c1cc2ccccc2s1)N(O)C(N)=O (centres unmarked) [Zileuton, N-[1-benzo(b)thien-2-ylethyl]-N-hydroxy-urea]
Human recombinant 5-LO [3]; 80 minutes after the start of the reaction, 234 nm, Figure 4
  absorbance pattern in substrate-depleted conditions: increased slowly over time
Human recombinant 5-LO [2]; [4]
  absorbance pattern over time (redox / non-redox pattern): clear redox pattern
  reduction in absorbance: 0.042
Human recombinant 5-LO [2]; 10 µM inhibitor
  Redox absorbance, Δabs: −0.025±0.018
Human recombinant 5-LO [2]; first 20 seconds of the reaction, Figure 2
  share of the decrease in absorbance in the first 20 seconds: about 50%
